Measurements taken from publication PMC8474119, “Discovery and SAR Evolution of Pyrazole Azabicyclo[3.2.1]octane Sulfonamides as a Novel Class of Non-Covalent N-Acylethanolamine-Hydrolyzing Acid Amidase (NAAA) Inhibitors for Oral Administration” (Journal of Medicinal Chemistry, 2021).

What was measured:
[1] = Mouse pharmacokinetics, i.v. and p.o.; type: in vivo; conditions: plasma, male C57BL/6 mice; for AUC at 4 h / Cmax at 4 h / Tmax at 4 h / Vd at 4 h / clearance at 4 h / bioavailability at 4 h: iv; for AUC at 4 h / Cmax at 4 h / Tmax at 4 h / Vd at 4 h / clearance at 4 h: i.v. 3 mg/kg; for AUC at 8 h / Cmax at 8 h / Tmax at 8 h: po, p.o. 10 mg/kg
Protocol: Male C57BL/6 mice, weighing 22–24 g, were used (Charles River). All procedures were performed in accordance with the Ethical Guidelines of European Communities Council (Directive 2010/63/EU of 22 September 2010) and accepted by the Italian Ministry of Health. All efforts were made to minimize animal suffering and to use the minimal number of animals required to produce reliable results, according to the “3Rs concept”. Animals were group-housed in ventilated cages and had free access to food and water. They were maintained under a 12 h light/dark cycle (lights on at 8:00 am) at controlled temperature (21 ± 1 °C) and relative humidity (55 ± 10%).
Compound 39 or 50 was administered p.o. and i.v. to C57BL/6 male mice at 10 and 3 mg/kg. The vehicle used was PEG400/Tween 80/saline solution at 10/10/80% in volume, respectively. Three animals per each time point were treated. Blood samples at 0, 15, 30, 60, 120, 240, and 480 min after administration were collected for the p.o. arm. Blood samples at 0, 5, 15, 30, 60, 120, and 240 min after administration were collected for the i.v. arm. Plasma was separated from blood by centrifugation for 15 min at 1500 rpm a 4 °C, transferred to Eppendorf tubes, and frozen (−80 °C). Control animals treated with vehicle only were also included in the experimental protocol.
Plasma samples were centrifuged at 21,100g for 15 min at 4 °C. An aliquot of each sample was extracted (1:3) with cold CH3CN containing 200 nM of an appropriate internal standard as a close analogue of the parent compound (for compound 39: (1R,3r,5S)-3-(4-phenylphenoxy)-8-((3,5-dimethyl-1H-pyrazol-4-yl)sulfonyl)-8 azabicyclo[3.2.1]octane; for compound 50: (1R,3r,5S)-3-((5-methylpyrazin-2-yl)oxy)-8-((3,5-dimethyl-1H-pyrazol-4-yl)sulfonyl)-8-azabicyclo[3.2.1]octane). A calibration curve was obtained in blank mouse plasma over a 1 nM to 10 μM range. Three quality controls were prepared by spiking the parent compound in blank mouse plasma to 20, 200, and 2.000 nM, as final concentrations. The calibrators and quality controls were extracted (1:3) with the same extraction solution as the plasma sample. The plasma samples, the calibrators, and quality controls were centrifuged at 3.270g for 15 min at 4 °C. The supernatants were further diluted (1:1) with H2O + 0.1% HCOOH, and analyzed by LC–MS/MS on a Waters ACQUITY UPLC-MS TQD system consisting of a Triple Quadrupole Detector (TQD) Mass Spectrometer equipped with an Electrospray Ionization interface and a Photodiode Array eλ Detector from Waters Inc. (Milford, MA, USA). Electrospray ionization was applied in positive mode. Compound-dependent parameters such as MRM transitions and collision energy were developed for the parent compound and the internal standard. The analyses were run on an ACQUITY UPLC BEH C18 (50 × 2.1 mm ID, particle size 1.7 μm) with a VanGuard BEH C18 precolumn (5 × 2.1 mm ID, particle size 1.7 μm) at 40 °C. The mobile phase was H2O + 0.1% HCOOH (A) and CH3CN + 0.1% HCOOH (B) at a flow rate = 0.5 mL/min. A linear gradient was applied starting at 10% B with an initial hold for 0.2 min, then 10–100% B in 2 min. All samples (plasma samples, calibrators, and quality controls) were quantified by the MRM peak area response factor in order to determine the levels of the parent compound in plasma. The concentrations versus time were plotted and the profiles were fitted using PK Solutions Excel Application (Summit Research Service, USA) in order to determine the pharmacokinetic parameters.

h-NAAA = target: T1, h-NAAA (Homo sapiens, UniProt Q02083); test: Competitive activity-based protein profiling (ABPP) with probe ARN14686; type: binding
T1 construct: made in house; host or cells: HEK-293 cells stably overexpressing human NAAA; enzyme-enriched (lysosomal) lysate
T1 sequence (Q02083 29-125 limits assumed): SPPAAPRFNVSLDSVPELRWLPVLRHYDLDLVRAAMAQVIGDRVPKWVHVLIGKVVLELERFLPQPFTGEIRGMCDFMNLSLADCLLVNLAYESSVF
T1 sequence (Q02083 126-359 limits assumed): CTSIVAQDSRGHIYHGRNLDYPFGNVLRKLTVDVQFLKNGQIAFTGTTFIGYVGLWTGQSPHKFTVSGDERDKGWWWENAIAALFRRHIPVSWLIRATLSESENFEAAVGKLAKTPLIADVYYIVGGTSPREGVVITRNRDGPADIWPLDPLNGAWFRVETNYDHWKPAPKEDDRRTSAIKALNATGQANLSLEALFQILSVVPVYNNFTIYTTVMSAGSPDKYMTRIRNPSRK
Protocol: At the end of this preincubation time, the activity-based probe undec-10-ynyl-N-[(S)-2-oxoazetidin-3-yl]carbamate (ARN14686, see Figure S1, Supporting Information)[45] was added at 20 μM for 15 min or for 4 h at 37 °C. Next, click chemistry reaction was performed by adding the following reagents at the indicated final concentrations: 100 μM azide-PEG3-alexa fluor 545 (CLK-AZ109, Jena Bioscience), 1.0 mM tris(2-carboxyethyl)phosphine (TCEP) hydrochloride, 100 μM tris-[(1-benzyl-1H-1,2,3-triazol-4-yl)methyl]amine (TBTA), and 1 mM CuSO4·5H2O.[62] TBTA was first dissolved in DMSO at 83.5 mM and then diluted with four volumes of tert-butanol. The reaction was mixed by vortexing and incubated 2 h at 25 °C. Samples (10 μL) were analyzed by SDS-PAGE, and gel fluorescence was scanned at 532 nm wavelength (ChemidDoc MP, BIO-RAD).

[2] = p.o. 10 mg/kg vs i.v. 3 mg/kg, read-out: F (oral bioavailability)

Compound	AUC at 4 h [1] [ng·h/mL]	Cmax at 4 h [1] [ng/mL]	Tmax at 4 h [1] [min]	Vd at 4 h [1] [L/kg]	clearance at 4 h [1] [mL/min/kg]	bioavailability at 4 h [1, 2] [%]	AUC at 8 h [1] [ng·h/mL]	Cmax at 8 h [1] [ng/mL]	Tmax at 8 h [1] [min]	effect on h-NAAA labeling by ABP ARN14686, 15 min probe incubation (h-NAAA; 20 μM, lysosomal extracts of h-NAAA overexpressing HEK-293 cells, probe 15 min)	effect on h-NAAA labeling by ABP ARN14686, 4 h probe incubation (h-NAAA; 20 μM, lysosomal extracts of h-NAAA overexpressing HEK-293 cells, probe 4 h)	mode of interaction with h-NAAA (h-NAAA; competitive ABPP)	bioavailability ([1]; oral, p.o. 10 mg/kg vs i.v. 3 mg/kg, read-out: F (oral bioavailability)) [%]
CCCCc1ccc(O[C@H]2C[C@H]3CC[C@@H](C2)N3S(=O)(=O)c2c(C)n[nH]c2C)cc1 [Compound 39, (1R,3r,5S)-3-(4-Butylphenoxy)-8-((3,5-dimethyl-1H-pyrazol-4-yl)sulfonyl)-8-azabicyclo[3.2.1]octane]	347	702	5	4.45	144	30	346	297	30	–	–	–	–
CCOCc1cnc(O[C@H]2C[C@H]3CC[C@@H](C2)N3S(=O)(=O)c2c(C)n[nH]c2C)cn1 [Compound 50, (1R,3r,5S)-8-((3,5-Dimethyl-1H-pyrazol-4-yl)sulfonyl)-3-((5-(ethoxymethyl)pyrazin-2-yl)oxy)-8-azabicyclo[3.2.1]octane]	3370	5240	5	0.53	13	60	6790	6870	15	prevented the binding	almost totally reverted	non-covalent interaction with h-NAAA	~60
